Experimental data from patent US5821247A, “Hydroquinone derivative and pharmaceutical use thereof” (Japan Energy Corporation, priority 1996, dated 1998).

Legend:
[1] = tested on: picryl chloride-induced dermatitis; assay: Inhibition of picryl chloride-induced dermatitis (type IV allergic inflammation model, ear swelling, Asherson's method); format: in vivo, ICR male mice; conditions: applied on ear just after challenge, ear thickness at 24 h
Protocol: Evaluation 1: Inhibition of picryl chloride-induced dermatitis
Effect of the compounds of the present invention on picryl chloride-induceddermatitis, which is a typical model of type IV allergic inflammation, was estimated by the Asherson's method [Immunology, 15, 405 (1968)] in the following manner.
A 7% (w/v) solution of picryl chloride in acetone (0.1 mL) was applied on a portion of the abdominal skin of each of ICR male mice to sensitize the mice. After 7 days, a 1% (w/v) solution of picryl chloride in acetone (0.02 mL) was applied on the ears of the individual mice to induce allergic reaction. Just after the challenge, 0.04 mL of acetone (control) or a 0.25-2.5% (w/v) solution of the test compound in acetone was applied on the ear. Increase of the ear thickness of the individual mice was measured at 24 h after the challenge, and inhibitory effect of the test compound on the dermatitis was estimated based on the difference in ear thickness between before and after the induction of the allergic reaction.

albumin-induced asthma = assay: Inhibition of albumin-induced asthma (air way resistance, double flow plethysmography); format: in vivo, Hartley male guinea pigs; conditions: 100 mg/kg, orally 1 h before and 3 h after the challenge
Protocol: Evaluation 2: Inhibition of albumin-induced asthma
Effect of the compounds of the present invention on albumin-induced asthma was estimated in the following manner.
Inhalation of 1% ovalbumin using ultrasonic nebulizer into Hartley male guinea pigs was performed 10 min/day over 8 days to sensitize the guinea pigs. One week after the last sensitization, inhalation of 2% ovalbumin was performed for 5 min. to induce allergic reaction. Metyrapone (10 mg/kg, i.v.) was administered at 24 h and 1 h before the challenge, propylene glycol (control) or a solution of the test compound in propylene glycol was orally administered at 1 h before and 3 h after the challenge, and pyrilamine (10 mg/kg, i.p.) was intraperitoneally administered at 30 min before the challenge. Air way resistance was measured by double flow plethysmography at 1 min, 4 h, 5 h, 6 h, 7 h, and 8 h after the challenge, and inhibitory effect of the test compound on the asthma was estimated based on the measurements obtained.

[2] = Metabolite found in plasma after oral administration of the compound of Example 1; format: in vivo; conditions: compound of Example 1 orally administered to guinea pig
From the text: The title compound was obtained by repeating substantially the same procedure as Example 1, except using 4-(3,5,6-trimethyl-1,4-benzoquinon-2-yl)-2-hydroxy-2-methylbutyric acid which had been prepared by oxidation of 6-hydroxy-2,5,7,8-tetramethylchroman-2-carboxylic acid with ammonium cerium (IV) nitrate (yield 62%).

[3] = concentration 0.75% (w/v) in acetone
[4] = concentration 0.25% (w/v) in acetone

SMILES	Inhibition (%) of picryl chloride-induced dermatitis [1, 3]	further results
Cc1c(C)c2c(c(C)c1O)CCC(C)(CNc1c(N)n(-c3ccccc3)c(=O)n(C)c1=O)O2 (stereo not drawn) [Example 17, 6-Amino-5-[(6-hydroxy-2,5,7,8-tetramethyl-2-chromanylmethyl)amino]-3-methyl-1-phenyl-2,4 (1H, 3H) -pyrimidinedione]	80%	–
Cc1c(C)c2c(c(C)c1O)CCC(C)(C(=O)Nc1c(N)n(-c3ccccc3)c(=O)n(C)c1=O)O2 (stereo not drawn) [Example 1, 6-Amino-5-(6-hydroxy-2,5,7,8-tetramethvlchroman-2-carboxamido)-3-methyl-1-phenyl-2,4 (1H. 3H)-pyrimidinedione]	–	inhibition on the air way reaction at 1 min after the challenge (albumin-induced asthma; 1 min after the challenge): 62%; inhibition on the air way reaction (AUC) during 4-8 h after the challenge (albumin-induced asthma; AUC 4-8 h): 50%; Inhibition (%) of picryl chloride-induced dermatitis [1, 4]: 69%
Cc1c(C)c2c(c(C)c1O)CC[C@@](C)(C(=O)Nc1c(N)n(-c3ccccc3)c(=O)n(C)c1=O)O2 [Example 3, 6-Amino-5-(6-hydroxy-2,5,7,8-tetramethylchroman-2(S)-carboxamido)-3-methyl-1-phenyl-2,4 (1H, 3H) -pyrimidinedione]	69%	–
CC1=C(C)C(=O)C(CCC(C)(O)C(=O)Nc2c(N)n(-c3ccccc3)c(=O)n(C)c2=O)=C(C)C1=O (stereo not drawn) [Example 15, 6-Amino-3-methyl-1-phenyl-5-[4-(3,5,6-trimethyl-1,4-benzoquinon-2-yl)-2-hydroxy-2-methylbutyramido]-2,4 (1H, 3H)-pyrimidinedione]	70%	found in plasma as metabolite of the compound of Example 1 [2]: found in plasma a guinea pig as one of metabolites
CNc1c(NC(=O)C2(C)CCc3c(C)c(O)c(C)c(C)c3O2)c(=O)n(C)c(=O)n1-c1ccccc1 (stereo not drawn) [Example 11, 5-(6-Hydroxy-2,5,7,8-tetramethvlchroman-2-carboxamido)-3-methyl-6-methylamino-1-phenyl-2,4 (1H, 3H) -pyrimidinedione]	44%	–
COc1c(C)c(C)c2c(c1C)CCC(C)(C(=O)Nc1c(N)n(-c3ccccc3)c(=O)n(C)c1=O)O2 (stereo not drawn) [Example 13, 6-Amino-5-(6-methoxy-2,5.7,8-tetramethylchroman-2-carboxamido)-3-methyl-1-phenyl-2,4 (1H, 3H)-pyrimidinedione]	–	Inhibition (%) of picryl chloride-induced dermatitis ([1]; concentration 2.50% (w/v) in acetone): 33%
CC(=O)Oc1c(C)c(C)c2c(c1C)CCC(C)(C(=O)Nc1c(N)n(-c3ccccc3)c(=O)n(C)c1=O)O2 (stereo not drawn) [Example 14, 5-(6-Acetoxy-2.5,7,8-tetramethvlchroman-2-carboxamido)-6-amino-3-methyl-1-phenyl-2,4 (1H, 3H)-pyrimidinedione]	53%	–
Cc1c(C)c2c(c(C)c1O)CC[C@](C)(C(=O)Nc1c(N)n(-c3ccccc3)c(=O)n(C)c1=O)O2 [Example 2]	65%	–
CCCCN(Cc1c(N)n(-c2ccccc2)c(=O)n(C)c1=O)C(=O)C1(C)CCc2c(C)c(O)c(C)c(C)c2O1 (stereo not drawn) [Example 19, 6-Amino-5-(N-butyl-6-hydroxy-2,5,7,8-tetramethylchroman-2-carboxamidomethyl)-3-methyl-1-phenyl-2,4 (1H, 3H)-pyrimidinedione]	–	Inhibition (%) of picryl chloride-induced dermatitis [1, 4]: 49%
